This is an account of results in patent publication US9776962B2, “Aromatic compounds with GPR40 agonistic activity” (TAKEDA PHARMACEUTICAL COMPANY LIMITED, priority 2013, dated 2017).

T1 sequence (O14842 whole entry): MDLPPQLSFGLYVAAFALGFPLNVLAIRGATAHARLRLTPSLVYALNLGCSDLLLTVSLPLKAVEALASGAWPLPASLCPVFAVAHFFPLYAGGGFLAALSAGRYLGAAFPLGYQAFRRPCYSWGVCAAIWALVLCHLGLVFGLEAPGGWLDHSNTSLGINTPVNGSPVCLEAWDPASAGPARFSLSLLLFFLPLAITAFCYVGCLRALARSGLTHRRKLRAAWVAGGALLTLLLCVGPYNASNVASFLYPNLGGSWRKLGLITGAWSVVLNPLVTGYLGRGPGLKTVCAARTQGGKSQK

This experiment concerns the target T1, human GPR40 (Homo sapiens, UniProt O14842).
T1 construct: expressed in transfected cells
Briefly: Evaluation of human GPR40 agonist activity with increase in intracellular Ca2+ concentration as an index (FLIPR). It counts as cell-based. The conditions noted are these: test compound 1 μM; CHO(dhfr−) cells stably expressing human GPR40; 100% = 10 μM compound of Example 153, 0% = DMSO. Here is the method:
Plasmid hGPR40/pAKKO-1.11H for mammalian cells expression, wherein cDNA fragment (SEQ ID NO: 1) encoding the full-length human GPR40 was incorporated into an expression vector pAKKO-1.11H (Biochimica et Biophysica Acta vol. 1219 pp. 251-259 (1994)), was transfected into CHO-dhfr(−) cells (ATCC, CRL-9096) by using Lipofectamine 2000 (Invitrogen:11668-019). After transfection, the limiting dilution-culture method was performed to select clone in selection medium (nucleic acid-free α-MEM (Invitrogen:12561-056)) containing 10% dialyzed bovine serum (Invitrogen:26400-044)). The expression level of human GPR40 mRNA was confirmed by TaqMan PCR (Life Technologies), and the intracellular calcium mobilization activity of GPR40 ligand (γ-linolenic acid) was confirmed by FLIPR (Molecular Devices), and a clone of human GPR40 expressing CHO cells was selected.
Evaluation of Human GPR40 Agonist Activity with Increase in Intracellular Ca^2+ Concentration as an Index
CHO(dhfr−) cells that stably expressed human GPR40 were suspended in MEMα (Nikken Bio Medical Laboratory) containing 10% dialyzed bovine serum (JR Scientific), 10 mM HEPES (Life Technologies), 100 U/mL penicillin, 100 μg/mL streptomycin (Life Technologies), and plated on a 384 well black/clear cell culture plate at 10,000 cells/well. After culture overnight in a CO2 incubator at 37° C., the culture supernatant was removed, and loading buffer [Ca^2+ probe attached to Calcium Kit II-iCellux (DOJINDO) was dissolved in assay buffer (20 mM HEPES, 0.1% fatty acid-free BSA (Sigma-Aldrich), 2.5 mM probenecid (DOJINDO)-containing HESS (Life Technologies))] was added at 30 μL/well. After leaving for 1 hr at room temperature under light shielding, assay buffer containing the test compound at a final concentration of 1 μM was added at 10 μL/well in FLIPR Tetra (Molecular Devices), and the fluorescence amount was successively measured. Human GPR40 agonist activity calculated using an increase in the intracellular Ca^2+ concentration as an index, wherein the activity of 10 μM of the compound of Example 153 was 100%, and the activity when DMSO was added instead of the test compound was 0%.
As for `COc1ccc(C(=O)N(CC2CC2)c2ccccn2)c(N2CCC(COc3cc(C(CC(=O)O)C4CC4)ccn3)CC2)c1` (single isomer, unassigned) [Example 141, 3-cyclopropyl-3-(2-((1-(2-((cyclopropylmethyl)(pyridin-2-yl)carbamoyl)-5-methoxyphenyl)piperidin-4-yl)methoxy)pyridin-4-yl)propanoic acid], the activation at 1 µM worked out at 81%. On to `COc1ccc(C(=O)N(CC2CC2)c2ccccn2)c(N2CCC(COc3cc(C(CC(=O)O)C4CC4)ccn3)CC2)c1` (single isomer, unassigned) [Example 142, 3-cyclopropyl-3-(2-((1-(2-((cyclopropylmethyl)(pyridin-2-yl)carbamoyl)-5-methoxyphenyl)piperidin-4-yl)methoxy)pyridin-4-yl)propanoic acid], for which the “Activity (human GPR40 agonist activity)” value is on record as 97%. `COc1ccc(C(=O)N(C)CC(C)C)c(N2CCC(COc3cccc(C(CC(=O)O)C4CC4)c3)CC2)c1` (stereo not shown) [Example 1, 3-cyclopropyl-3-(3-((1-(5-methoxy-2-(methyl(2-methylpropyl)carbamoyl)phenyl)piperidin-4-yl)methoxy)phenyl)propanoic acid] showed an activation at 1 µM of 97%. Regarding `COc1ccc(C(=O)N2CCc3ccccc32)c(N2CCC(COc3cccc(C(CC(=O)O)C4CC4)c3)CC2)c1` (stereo not shown) [Example 4, 3-cyclopropyl-3-(3-((1-(2-(2,3-dihydro-1H-indol-1-ylcarbonyl)-5-methoxyphenyl)piperidin-4-yl)methoxy)phenyl)propanoic acid], the activation at 1 µM was determined as 97%.

The compound `COc1ccc(C(=O)N2C[C@@H](C)O[C@@H](C)C2)c(N2CCC(COc3cccc(C(CC(=O)O)C4CC4)c3)CC2)c1` (stereo partly drawn) [Example 5, 3-cyclopropyl-3-(3-((1-(2-((cis-2,6-dimethylmorpholin-4-yl)carbonyl)-5-methoxyphenyl)piperidin-4-yl)methoxy)phenyl)propanoic acid] gave an activation at 1 µM of 85%. For the compound `COc1ccc(C(=O)N(CCC#N)c2ccccc2)c(N2CCC(COc3cccc(C(CC(=O)O)C4CC4)c3)CC2)c1` (stereo not shown) [Example 6, 3-(3-((1-(2-((2-cyanoethyl)(phenyl)carbamoyl)-5-methoxyphenyl)piperidin-4-yl)methoxy)phenyl)-3-cyclopropylpropanoic acid], the activation at 1 µM was determined as 73%. The same measure, in the same setting: the same measure for `CCc1ccc(C(=O)N(CC(F)(F)C(F)(F)F)C(C)C)c(N2CCC(COc3cccc(C(CC(=O)O)C4CC4)c3)CC2)c1` (stereo not shown) [Example 54, 3-cyclopropyl-3-(3-((1-(5-ethyl-2-((2,2,3,3,3-pentafluoropropyl)(propan-2-yl)carbamoyl)phenyl)piperidin-4-yl)methoxy)phenyl)propanoic acid]: 89%; for `CCc1ccc(C(=O)N(CC(C)(C)C)c2cccc(C)n2)c(N2CCC(COc3cccc(C(CC(=O)O)C4CC4)c3)CC2)c1` (stereo not shown) [Example 55, 3-cyclopropyl-3-(3-((1-(2-((2,2-dimethylpropyl)(6-methylpyridin-2-yl)carbamoyl)-5-ethylphenyl)piperidin-4-yl)methoxy)phenyl)propanoic acid]: 84%; for `CCc1ccc(C(=O)N(CC(C)(C)C)c2ccccn2)c(N2CCC(COc3cccc(C(CC(=O)O)C4CC4)c3)CC2)c1` (stereo not shown) [Example 56, 3-cyclopropyl-3-(3-((1-(2-((2,2-dimethylpropyl)(pyridin-2-yl)carbamoyl)-5-ethylphenyl)piperidin-4-yl)methoxy)phenyl)propanoic acid]: 83%. `CCc1ccc(C(=O)N(C)c2ncco2)c(N2CCC(COc3cccc(C(CC(=O)O)C4CC4)c3)CC2)c1` (stereo not shown) [Example 57, 3-cyclopropyl-3-(3-((1-(5-ethyl-2-(methyl(1,3-oxazol-2-yl)carbamoyl)phenyl)piperidin-4-yl)methoxy)phenyl)propanoic acid] displayed an activation at 1 µM of 58%. `CC(C)(C)CN(C(=O)c1ccc(Cl)nc1N1CCC(COc2cccc(C(CC(=O)O)C3CC3)c2)CC1)c1ccccn1` (stereo not shown) [Example 59, 3-(3-((1-(6-chloro-3-((2,2-dimethylpropyl)(pyridin-2-yl)carbamoyl)pyridin-2-yl)piperidin-4-yl)methoxy)phenyl)-3-cyclopropylpropanoic acid] registered an activation at 1 µM of 73%.

With `CCc1ccc(C(=O)N(CC(C)(C)C)c2ccccn2)c(N2CCC(COc3cccc(C(CC(=O)O)C4CC4)c3)CC2)n1` (stereo not shown) [Example 60, 3-cyclopropyl-3-(3-((1-(3-((2,2-dimethylpropyl)(pyridin-2-yl)carbamoyl)-6-ethylpyridin-2-yl)piperidin-4-yl)methoxy)phenyl)propanoic acid], the activation at 1 µM stood at 52%. On the same count and under the same terms, the same measure for `COc1ccc(C(=O)N(CC(C)C)c2ccccn2)c(N2CCC(COc3cccc(C(CC(=O)O)C4CC4)c3)CC2)c1` (stereo not shown) [Example 62, 3-cyclopropyl-3-(3-((1-(5-methoxy-2-((2-methylpropyl)(pyridin-2-yl)carbamoyl)phenyl)piperidin-4-yl)methoxy)phenyl)propanoic acid]: 101%; for `CCc1ccc(C(=O)N(CC(C)(C)C)c2cccc(C)n2)c(N2CCC(COc3cc(C(CC(=O)O)C4CC4)ccn3)CC2)c1` (stereo not shown) [Example 109, 3-cyclopropyl-3-(2-((1-(2-((2,2-dimethylpropyl)(6-methylpyridin-2-yl)carbamoyl)-5-ethylphenyl)piperidin-4-yl)methoxy)pyridin-4-yl)propanoic acid]: 90%. As to `COc1ccc(C(=O)N(CC(C)(C)C)c2cccc(C)n2)c(N2CCC(COc3cc(C(CC(=O)O)C4CC4)ccn3)CC2)c1` (stereo not shown) [Example 110, 3-cyclopropyl-3-(2-((1-(2-((2,2-dimethylpropyl)(6-methylpyridin-2-yl)carbamoyl)-5-methoxyphenyl)piperidin-4-yl)methoxy)pyridin-4-yl)propanoic acid], the “Activity (human GPR40 agonist activity)” value amounted to 104%. Take `COc1ccc(C(=O)N(CC(C)(C)C)c2ccccn2)c(N2CCC(COc3cc(C(CC(=O)O)C4CC4)ccn3)CC2)c1` (stereo not shown) [Example 111, 3-cyclopropyl-3-(2-((1-(2-((2,2-dimethylpropyl)(pyridin-2-yl)carbamoyl)-5-methoxyphenyl)piperidin-4-yl)methoxy)pyridin-4-yl)propanoic acid]: the activation at 1 µM stood at 100%. In turn, `COc1ccc(C(=O)N(CC(C)(C)C)c2cc(C)ccn2)c(N2CCC(COc3cc(C(CC(=O)O)C4CC4)ccn3)CC2)c1` (stereo not shown) [Example 112, 3-cyclopropyl-3-(2-((1-(2-((2,2-dimethylpropyl)(4-methylpyridin-2-yl)carbamoyl)-5-methoxyphenyl)piperidin-4-yl)methoxy)pyridin-4-yl)propanoic acid] had an activation at 1 µM of 98%. `COc1ccc(C(=O)N(CC(C)C)c2ccccn2)c(N2CCC(COc3cc(C(CC(=O)O)C4CC4)ccn3)CC2)c1` (stereo not shown) [Example 113, 3-cyclopropyl-3-(2-((1-(5-methoxy-2-((2-methylpropyl)(pyridin-2-yl)carbamoyl)phenyl)piperidin-4-yl)methoxy)pyridin-4-yl)propanoic acid] had an activation at 1 µM of 102%. The same measure, in the same setting: the same measure for `COc1ccc(C(=O)N(CC2(C)CC2)c2ccccn2)c(N2CCC(COc3cc(C(CC(=O)O)C4CC4)ccn3)CC2)c1` (stereo not shown) [Example 114, 3-cyclopropyl-3-(2-((1-(5-methoxy-2-(((1-methylcyclopropyl)methyl)(pyridin-2-yl)carbamoyl)phenyl)piperidin-4-yl)methoxy)pyridin-4-yl)propanoic acid]: 98%. As to `COc1ccc(C(=O)N(CC(C)C)c2ccc(C)cn2)c(N2CCC(COc3cc(C(CC(=O)O)C4CC4)ccn3)CC2)c1` (stereo not shown) [Example 115, 3-cyclopropyl-3-(2-((1-(5-methoxy-2-((2-methylpropyl)(5-methylpyridin-2-yl)carbamoyl)phenyl)piperidin-4-yl)methoxy)pyridin-4-yl)propanoic acid], the activation at 1 µM was 96%. `COc1ccc(C(=O)N(CC(F)(F)F)c2ccccn2)c(N2CCC(COc3cc(C(CC(=O)O)C4CC4)ccn3)CC2)c1` (stereo not shown) [Example 116, 3-cyclopropyl-3-(2-((1-(5-methoxy-2-(pyridin-2-yl(2,2,2-trifluoroethyl)carbamoyl)phenyl)piperidin-4-yl)methoxy)pyridin-4-yl)propanoic acid] gave an activation at 1 µM of 101%. Compound `COc1ccc(C(=O)N(CC2CC2)c2ccccn2)c(N2CCC(COc3cc(C(CC(=O)O)C4CC4)ccn3)CC2)c1` (stereo not shown) [Example 117, 3-cyclopropyl-3-(2-((1-(2-((cyclopropylmethyl)(pyridin-2-yl)carbamoyl)-5-methoxyphenyl)piperidin-4-yl)methoxy)pyridin-4-yl)propanoic acid] returned an activation at 1 µM of 95%.
